# Experimental data reported in PubChem BioAssay AID1259408 (Genetic Toxicology Data Bank (GENE-TOX), 2018).
# Active and inactive are the calls of the source. No rule for the calls is given here. Numbered stars: 1 amine (or outer) side, 2 acyl side, 3 side chain; on linkers, the order of the positions; unused ones are H or OH. Peptide text beside a SMILES is read from it. CO = O=C([*:1])[*:2]
# Tested on: GENE-TOX genotoxicity assays, various organisms and cells
# Test: GENE-TOX mutagenicity studies
# Conditions: for call: Assay Type: In vivo carcinogenicity studies
# [1] = Species/Cell Type: Bacillus subtilis (H17 vs M45), Assay Type: Rec-assay, spot test, DNA effects (bacterial DNA repair), Assay Code: REW+, Evaluation Type: Evaluation A (Pre-1980)
# [2] = Species/Cell Type: Human, Assay Type: Sister-chromatid exchange (SCE) in vitro, Assay Code: SC1+, Evaluation Type: Evaluation B (Post-1980)
# [3] = Species/Cell Type: Nonhuman, Assay Code: CCGT, Evaluation Type: Evaluation A (Pre-1980)
# [4] = Species/Cell Type: Salmonella typhimurium (one or more of the five standard strains: TA98, TA100, TA1535, TA1537, and TA1538), Assay Type: Histidine reverse gene mutation, Ames assay, Assay Code: SALT, Evaluation Type: Evaluation A (Pre-1980)
# [5] = Species/Cell Type: Salmonella typhimurium (one or more of the five standard strains: TA98, TA100, TA1535, TA1537, and TA1538), Assay Type: Histidine reverse gene mutation, Ames assay, Assay Code: SAL+, Evaluation Type: Evaluation A (Pre-1980)
# [6] = Species/Cell Type: Nonhuman, Assay Code: CCG+, Evaluation Type: Evaluation A (Pre-1980)
# [7] = Species/Cell Type: Salmonella typhimurium (one or more of the five standard strains: TA98, TA100, TA1535, TA1537, and TA1538), Assay Type: Histidine reverse gene mutation, Ames assay, Assay Code: SAL-, Evaluation Type: Evaluation A (Pre-1980)
# [8] = Species/Cell Type: Nonhuman, Assay Type: Sister-chromatid exchange (SCE) in vitro, Assay Code: SC2+D, Dose Response: With dose response, Evaluation Type: Evaluation B (Post-1980)
# [9] = Species/Cell Type: Salmonella typhimurium (one or more of the five standard strains: TA98, TA100, TA1535, TA1537, and TA1538), Assay Type: Histidine reverse gene mutation, Ames assay, Assay Code: SAL+*, Activation: With metabolic activation, Evaluation Type: Evaluation A (Pre-1980)
# [10] = Species/Cell Type: Human lymphocytes, Assay Type: Sister-chromatid exchange (SCE) in vitro, Assay Code: SCLT, Evaluation Type: Evaluation B (Post-1980)
# [11] = Species/Cell Type: Human, Assay Type: Sister-chromatid exchange (SCE) in vitro, Assay Code: SC1T, Evaluation Type: Evaluation B (Post-1980)
# [12] = Species/Cell Type: Fischer rat embryo (RLV/1706) cells, Assay Type: Cell transformation, viral enhanced, Assay Code: CTR+, Evaluation Type: Evaluation A (Pre-1980)
smiles,measurement,setting,value
O=C1OCCN1N=Cc1ccc([N+](=O)[O-])o1,mutagenic call,[1],active; positive
same,mutagenic call,"Species/Cell Type: Drosophila melanogaster, Assay Type: Sex-linked recessive lethal gene mutation, Assay Code: SRL+, Evaluation Type: Evaluation A (Pre-1980)",active; positive
same,mutagenic call,"Species/Cell Type: Escherichia coli WP2, Assay Type: Tryptophan reverse gene mutation, Assay Code: WP2+, Evaluation Type: Evaluation A (Pre-1980)",active; positive
same,mutagenic call,"Species/Cell Type: Escherichia coli WP2 UVRA, Assay Type: Tryptophan reverse gene mutation, Assay Code: WPU+, Evaluation Type: Evaluation A (Pre-1980)",active; positive
same,mutagenic call,"Species/Cell Type: Human diploid fibroblasts, Assay Type: Unscheduled DNA synthesis (UDS) in vitro, DNA effects, Assay Code: UDH-, Evaluation Type: Evaluation A (Pre-1980)",inactive; negative
same,mutagenic call,"Species/Cell Type: Human lymphocytes, Assay Type: Sister-chromatid exchange (SCE) in vitro, Assay Code: SCL+, Evaluation Type: Evaluation B (Post-1980)",active; positive
same,mutagenic call,"Species/Cell Type: Human lymphocytes, Assay Type: Sister-chromatid exchange (SCE) in vitro, Assay Code: SCLT, Evaluation Type: Evaluation A (Pre-1980)",no conclusion
same,mutagenic call,[2],active; positive
same,mutagenic call,"Species/Cell Type: Human, Assay Type: Sister-chromatid exchange (SCE) in vitro, Assay Code: SC1T, Evaluation Type: Evaluation A (Pre-1980)",no conclusion
O[C@@H]1C=Cc2cc3ccc4cccc5ccc(c2[C@H]1O)c3c45,mutagenic call,"Species/Cell Type: Chinese hamster lung (V79) cells, Assay Type: Forward gene mutation at the HPRT or ouabain locus, Assay Code: V79-*, Activation: With metabolic activation, Evaluation Type: Evaluation A (Pre-1980)",inactive; negative
same,call,[3],no conclusion
same,mutagenic call,"Species/Cell Type: Nonhuman, Assay Type: Sister-chromatid exchange (SCE) in vitro, Assay Code: SC2+, Evaluation Type: Evaluation A (Pre-1980)",active; positive
same,mutagenic call,[4],no conclusion
same,mutagenic call,"Species/Cell Type: Syrian hamster embryo (SHE) cells, Assay Type: Cell transformation, clonal assay, Assay Code: CTCT, Evaluation Type: Evaluation A (Pre-1980)",no conclusion
CC(=O)c1cc([N+](=O)[O-])c[nH]1,mutagenic call,[4],no conclusion
CC(=O)Nc1ccc2c(c1)Cc1cc(NC(C)=O)ccc1-2,mutagenic call,[5],active; positive
COc1ccc(OC)c(N=Nc2c(O)ccc3ccccc23)c1,call,[6],active; positive
same,mutagenic call,[7],inactive; negative
CCOC(=O)CNC(=O)C=[N+]=[N-],mutagenic call,[5],active; positive
NNc1ccccc1,mutagenic call,"Species/Cell Type: Mammalian polychromatic erythrocytes, Assay Type: Micronucleus test, chromosome aberrations, Assay Code: MNT+, Evaluation Type: Evaluation B (Post-1980)",active; positive
CCOC(=O)CC(SP(=O)(OC)OC)C(=O)OCC (stereo not given),call,"Species/Cell Type: Nonhuman, Assay Code: CCG-, Evaluation Type: Evaluation A (Pre-1980)",inactive; negative
same,mutagenic call,[8],active; positive
CC1=CCCc2c1cc(C)c1c2ccc2ccccc21,mutagenic call,[9],active; positive
Oc1ccc(Cl)c2cccnc12,mutagenic call,[4],no conclusion
C=CCCl,mutagenic call,"Species/Cell Type: Escherichia coli polA (W3119 vs P3478), Assay Type: Rec-assay, DNA effects (bacterial DNA repair), Assay Code: RE1+, Evaluation Type: Evaluation A (Pre-1980)",active; positive
same,mutagenic call,"Species/Cell Type: Saccharomyces cerevisiae, Assay Type: Mitotic recombination or gene conversion, Assay Code: YEC+, Evaluation Type: Evaluation A (Pre-1980)",active; positive
same,mutagenic call,"Species/Cell Type: Saccharomyces cerevisiae, Assay Type: Mitotic recombination or gene conversion, Assay Code: YEH+, Evaluation Type: Evaluation A (Pre-1980)",active; positive
C#C[C@]1(O)CC[C@H]2[C@@H]3CCC4=CC(=O)CC[C@@H]4[C@H]3CC[C@@]21C,mutagenic call,"Species/Cell Type: Human, Sex: Male, Assay Type: Sperm morphology, Assay Code: SPH+, Evaluation Type: Evaluation A (Pre-1980)",active; positive
same,call,[6],active; positive
O=NN1CCCC1=O,mutagenic call,[1],active; positive
NCCS,mutagenic call,"Species/Cell Type: Escherichia coli polA (W3119 vs P3478), Assay Type: Rec-assay, DNA effects (bacterial DNA repair), Assay Code: RE1T, Evaluation Type: Evaluation A (Pre-1980)",no conclusion
same,mutagenic call,[10],no conclusion
same,mutagenic call,[11],no conclusion
same,mutagenic call,"Species/Cell Type: Neurospora crassa, Assay Type: Reverse gene mutation, Assay Code: NER-, Evaluation Type: Evaluation A (Pre-1980)",inactive; negative
same,mutagenic call,[8],active; positive
same,mutagenic call,[4],no conclusion
CC(C)[C@H](NC(=O)[C@H](CCCN=C(N)N)NC(=O)N[C@@H](Cc1ccccc1)C(=O)O)C(=O)N[C@H](C=O)CCCN=C(N)N ({Phe-CO}-Arg-Val-Arg-aldehyde),mutagenic call,[2],active; positive
same,mutagenic call,"Species/Cell Type: Mouse (C3H/10T1/2) cells, Assay Type: Cell transformation, Assay Code: CTH-, Evaluation Type: Evaluation A (Pre-1980)",inactive; negative
same,mutagenic call,"Species/Cell Type: Nonhuman, Assay Type: Sister-chromatid exchange (SCE) in vitro, Assay Code: SC2T, Evaluation Type: Evaluation B (Post-1980)",no conclusion
C#C[C@]1(O)CC[C@H]2[C@@H]3CCc4cc(O)ccc4[C@H]3CC[C@@]21C,mutagenic call,[12],active; positive
same,mutagenic call,"Species/Cell Type: Mouse (BALB/c-3T3) cells, Assay Type: Cell transformation, Assay Code: CTB-, Evaluation Type: Evaluation A (Pre-1980)",inactive; negative
same,call,[6],active; positive
same,mutagenic call,"Species/Cell Type: Syrian hamster embryo (SHE) cells, Assay Type: Cell transformation, clonal assay, Assay Code: CTC-, Evaluation Type: Evaluation A (Pre-1980)",inactive; negative
COc1cccc(OC)c1O,mutagenic call,[10],no conclusion
same,mutagenic call,[11],no conclusion
NS(=O)(=O)c1cc2c(cc1Cl)NC=NS2(=O)=O,mutagenic call,[4],no conclusion
c1ccc2c(c1)CCc1cc3ccc4c(c3cc1-2)CCCC4,mutagenic call,[9],active; positive
CC(C)(C)OOCO,mutagenic call,"Species/Cell Type: Neurospora crassa, Assay Type: Reverse gene mutation, Assay Code: NER+, Evaluation Type: Evaluation A (Pre-1980)",active; positive
C=CC(OC(C)=O)c1ccccc1 (stereo not given),mutagenic call,[4],no conclusion
Clc1ccc(Oc2c(Cl)cc(Cl)cc2Cl)cc1,mutagenic call,"Species/Cell Type: Saccharomyces cerevisiae, Assay Type: Forward gene mutation, Assay Code: YEF-, Evaluation Type: Evaluation A (Pre-1980)",inactive; negative
same,mutagenic call,"Species/Cell Type: Saccharomyces cerevisiae, Assay Type: Mitotic recombination or gene conversion, Assay Code: YEC-, Evaluation Type: Evaluation A (Pre-1980)",inactive; negative
same,mutagenic call,"Species/Cell Type: Saccharomyces cerevisiae, Assay Type: Mitotic recombination or gene conversion, Assay Code: YEH-, Evaluation Type: Evaluation A (Pre-1980)",inactive; negative
CN1CCC[C@H]1c1cccnc1,mutagenic call,"Species/Cell Type: Neurospora crassa, Assay Type: Aneuploidy, chromosome aberrations, Assay Code: NEN-, Evaluation Type: Evaluation A (Pre-1980)",inactive; negative
same,mutagenic call,"Species/Cell Type: Nonhuman, Assay Type: Sister-chromatid exchange (SCE) in vitro, Assay Code: SC2+, Evaluation Type: Evaluation B (Post-1980)",active; positive
same,mutagenic call,[7],inactive; negative
CCCCN(CC(O)CC)N=O (stereo not given),mutagenic call,[9],active; positive
NC(=S)Nc1cccc2ccccc12,call,[3],no conclusion
same,mutagenic call,"Species/Cell Type: Syrian hamster embryo (SHE) cells, Assay Type: Cell transformation, clonal assay, Assay Code: CTC+, Evaluation Type: Evaluation A (Pre-1980)",active; positive
c1ccc2cc3c4c(ccc3cc2c1)CCC1OC41 (stereo not given),mutagenic call,"Species/Cell Type: Chinese hamster lung (V79) cells, Assay Type: Forward gene mutation at the HPRT or ouabain locus, Assay Code: V79+, Evaluation Type: Evaluation A (Pre-1980)",active; positive
CN(C)c1ccc(C(=O)c2ccc(N(C)C)cc2)cc1,mutagenic call,[12],active; positive
same,call,[6],active; positive
Nc1ccc(OCCO)c(N)c1,mutagenic call,"Species/Cell Type: Mammalian polychromatic erythrocytes, Assay Type: Micronucleus test, chromosome aberrations, Assay Code: MNTT, Evaluation Type: Evaluation B (Post-1980)",no conclusion
NC(=O)N(CCC[C@H](N)C(=O)O)N=O,mutagenic call,[5],active; positive
[C-]#[N+]C(=C\c1ccc(O)cc1)/C(=C/c1ccc(O)cc1)[N+]#[C-],mutagenic call,"Species/Cell Type: Bacillus subtilis (H17 vs M45), Assay Type: Rec-assay, spot test, DNA effects (bacterial DNA repair), Assay Code: REWT, Evaluation Type: Evaluation A (Pre-1980)",no conclusion
Cc1cccc2c1ccc1c3ccccc3ccc21,mutagenic call,[9],active; positive
CCCCC(=O)N(C)N=O,mutagenic call,"Species/Cell Type: Saccharomyces cerevisiae, Assay Type: Reverse gene mutation, Assay Code: YER+, Evaluation Type: Evaluation A (Pre-1980)",active; positive
Cc1cc2ccccc2c2c(F)cc3ccccc3c12,mutagenic call,[4],no conclusion
Nc1nnc(/C(=C/c2ccc([N+](=O)[O-])o2)c2ccco2)o1,mutagenic call,"Species/Cell Type: Human diploid fibroblasts, Assay Type: Unscheduled DNA synthesis (UDS) in vitro, DNA effects, Assay Code: UDH+, Evaluation Type: Evaluation A (Pre-1980)",active; positive
Nc1c(F)cc(-c2cc(F)c(N)c(F)c2)cc1F,mutagenic call,"Species/Cell Type: Human diploid fibroblasts, Assay Type: Unscheduled DNA synthesis (UDS) in vitro, DNA effects, Assay Code: UDH+*, Activation: With metabolic activation, Evaluation Type: Evaluation A (Pre-1980)",active; positive
same,mutagenic call,[9],active; positive
